Results as given in ChEMBL document CHEMBL2062374, “Chemoenzymatic synthesis and evaluation of 3-azabicyclo[3.2.0]heptane derivatives as dopaminergic ligands” (Eur J Med Chem, 2012).

Experiments:
Assay type in all cases: cell-based
D(1A) dopamine receptor = D(1A) dopamine receptor (Homo sapiens, UniProt P21728); assay: Displacement of [3H]SCH23390 from human D1 receptor expressed in HEK293 cells
D(2) dopamine receptor = D(2) dopamine receptor (Homo sapiens, UniProt P14416); assay: Displacement of [3H]raclopride from human D2L receptor expressed in HEK293 cells
Chain of D(2) dopamine receptor (P14416 whole entry): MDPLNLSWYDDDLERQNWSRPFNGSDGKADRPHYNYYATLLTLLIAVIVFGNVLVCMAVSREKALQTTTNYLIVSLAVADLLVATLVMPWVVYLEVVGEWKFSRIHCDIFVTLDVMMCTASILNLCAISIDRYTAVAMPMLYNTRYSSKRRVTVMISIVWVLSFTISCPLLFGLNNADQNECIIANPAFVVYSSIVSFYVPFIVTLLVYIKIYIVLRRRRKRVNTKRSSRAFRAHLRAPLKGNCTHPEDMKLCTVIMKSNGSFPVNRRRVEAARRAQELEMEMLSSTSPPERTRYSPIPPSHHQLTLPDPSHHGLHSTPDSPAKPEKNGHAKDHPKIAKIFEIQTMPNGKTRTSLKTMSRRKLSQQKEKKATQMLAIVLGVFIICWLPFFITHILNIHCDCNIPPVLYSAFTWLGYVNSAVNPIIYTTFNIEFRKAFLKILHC

D(3) dopamine receptor = D(3) dopamine receptor (Homo sapiens, UniProt P35462); assay: Displacement of [3H]raclopride from human D3 receptor expressed in HEK293 cells
Chain of D(3) dopamine receptor (P35462 whole entry): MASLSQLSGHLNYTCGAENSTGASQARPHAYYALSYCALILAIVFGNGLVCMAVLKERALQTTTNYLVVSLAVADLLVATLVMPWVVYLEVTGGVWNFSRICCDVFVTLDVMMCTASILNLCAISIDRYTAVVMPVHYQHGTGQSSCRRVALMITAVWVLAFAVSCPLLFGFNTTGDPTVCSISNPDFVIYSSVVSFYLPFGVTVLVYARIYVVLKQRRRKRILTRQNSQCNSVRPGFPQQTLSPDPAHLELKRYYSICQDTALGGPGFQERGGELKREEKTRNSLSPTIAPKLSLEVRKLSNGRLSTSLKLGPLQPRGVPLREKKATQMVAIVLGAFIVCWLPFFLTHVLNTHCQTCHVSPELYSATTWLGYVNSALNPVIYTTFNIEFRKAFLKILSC

Chain of D(1A) dopamine receptor (P21728 whole entry): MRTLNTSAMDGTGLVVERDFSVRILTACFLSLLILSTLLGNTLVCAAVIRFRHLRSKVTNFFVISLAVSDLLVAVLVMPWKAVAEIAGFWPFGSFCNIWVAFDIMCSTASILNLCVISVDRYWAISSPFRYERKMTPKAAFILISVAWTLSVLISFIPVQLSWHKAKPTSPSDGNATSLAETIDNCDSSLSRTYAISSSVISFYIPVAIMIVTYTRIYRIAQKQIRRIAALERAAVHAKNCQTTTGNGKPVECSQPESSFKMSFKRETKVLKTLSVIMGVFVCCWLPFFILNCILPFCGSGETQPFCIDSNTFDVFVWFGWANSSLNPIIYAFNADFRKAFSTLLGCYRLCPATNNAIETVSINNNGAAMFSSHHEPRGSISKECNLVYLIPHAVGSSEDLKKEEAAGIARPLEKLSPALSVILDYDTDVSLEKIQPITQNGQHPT

SMILES | Ki (D(1A) dopamine receptor) [µM] | Ki (D(2) dopamine receptor) [µM] | Ki (D(3) dopamine receptor) [µM]
CCN(CC)[C@@H]1[C@@H](CO)[C@H]2CN(Cc3ccccc3)[C@H](c3ccccc3)[C@H]21 | 42 | 12 | 13.2
CCN(CC)[C@H]1[C@H](CO)[C@@H]2CN(Cc3ccccc3)[C@@H](c3ccccc3)[C@@H]21 | 22 | 1.7 | 1.3
OC[C@H]1[C@H]2CN(Cc3ccccc3)[C@H](c3ccccc3)[C@H]2[C@@H]1N1CCCC1 | 40.8 | 7.4 | 11
OC[C@@H]1[C@@H]2CN(Cc3ccccc3)[C@@H](c3ccccc3)[C@@H]2[C@H]1N1CCCC1 | 22 | 0.25 | 0.28
CCN(CC)[C@@H]1[C@@H](CO)[C@H]2CN(Cc3ccccc3)[C@H](C)[C@H]21 | > 100 | 38 | 21
CCN(CC)[C@H]1[C@H](CO)[C@@H]2CN(Cc3ccccc3)[C@@H](C)[C@@H]21 | > 100 | 3.9 | 1.77
C[C@@H]1[C@@H]2[C@H](CN1Cc1ccccc1)[C@H](CO)[C@H]2N1CCCC1 | > 100 | 66 | 36
C[C@H]1[C@H]2[C@@H](CN1Cc1ccccc1)[C@@H](CO)[C@@H]2N1CCCC1 | > 100 | 16 | 11
CCN(CC)[C@@H]1[C@@H](CO)[C@H]2CN(Cc3ccccc3)[C@H](c3ccc(Br)cc3)[C@H]21 | 7 | 5 | 7.93
CCN(CC)[C@H]1[C@H](CO)[C@@H]2CN(Cc3ccccc3)[C@@H](c3ccc(Br)cc3)[C@@H]21 | 8 | 2 | 2.14
CCN(CC)[C@@H]1[C@@H](CO)[C@H]2CN(Cc3ccccc3)[C@H](c3ccccn3)[C@H]21 | > 100 | 42 | 36
CCN(CC)[C@H]1[C@H](CO)[C@@H]2CN(Cc3ccccc3)[C@@H](c3ccccn3)[C@@H]21 | > 100 | 12 | 8.8
OC[C@H]1[C@H]2CN(Cc3ccccc3)[C@H](c3ccccc3)[C@H]2[C@@H]1N1CCCCC1 | 44 | 7 | 5.3
OC[C@@H]1[C@@H]2CN(Cc3ccccc3)[C@@H](c3ccccc3)[C@@H]2[C@H]1N1CCCCC1 | 49 | 2 | 1.5
